# Experimental data reported in patent US11590117B2, “Treatment of a hematologic malignancy with 2-(4-chlorophenyl)-n-((2-(2,6-dioxopiperidin-3-yl)-1-oxoisoindolin-5-yl)methyl)-2,2-difluoroacetamide” (priority 2016, dated 2023).
# Assays:
# [1] = system: Chronic Lymphocytic Leukemia patient samples; test: CellTiter-Glo (CTG) cell proliferation assay, 72 hours; type: cell-based; conditions: Homo sapiens, Chronic Lymphocytic Leukemia patient samples (n = 3)
# Description: Table, Table 2 and Table 3. Human normal donor PBMCs and chronic lymphoid leukemia (CLL) patient blasts were obtained from AllCells, LLC (Alameda, Calif.).
# (§1) Preparation of Solutions of Test Article: Compounds were plated into black 384-well plates (Corning Inc.) to a final DMSO volume of 0.1% assuming a maximal volume of 50 μL. A 10-point dose response starting at 10 μM with a 1:3 dilution was printed in duplicate by acoustic dispense using the EDC ATS-100 platform.
# (§2) Cell Proliferation Assays: The effect of Compound 1 on the proliferation/viability of the hematological cell lines (Table 1 Table, Table 2 and Table 3), THLE-2, or PBMCs was assessed after 72 hours incubation using CTG (Promega), according to manufacturer's instructions. Hematological cell lines were dispensed into compound plates by a Multidrop™ Combi Reagent Dispenser (Thermo Scientific, Waltham, Mass.) at a concentration of 0.1 to 0.3×10^6 cells per mL in a 50 μL total volume. THLE-2 cells were seeded out at 1000 cells per well in 50 μL volume and incubated for 72 hours. At 72 hours, 25 μL per well of CTG was dispensed by a Multidrop™ Combi Reagent Dispenser and adenosine triphosphate (ATP) release by viable cells was measured as relative luminescence units after 30 minutes using the Envision platform.
# HNT-34 cells and PBMCs = test: JC-1 mitochondrial membrane potential assay; type: cell-based, human; conditions: HNT-34 cells over non-pre-activated PBMCs; 0.1 μM Compound 1; 72 hours
# THLE-2 = test: CellTiter-Glo (CTG) cell proliferation assay, 72 hours, counter-screen; type: cell-based, human
# Description: as §1, §2
# In order to calculate the therapeutic window for Compound 1, the compound was counter-screened against the immortalized (but non-tumorigenic) human hepatocyte-derived cell line THLE-2 (Pfeifer, et al, Proc Natl Acad Sci USA 1993 90(11):5123-5127) and against primary human PBMCs. […] The Compound 1 therapeutic window for the 10 sensitive AML cell lines as compared to THLE-2 cells ranged from 4.1 (KG-1a) to 57 (HNT-34) (method 1) or from 5.7 (KG-1a) to 79.5 (HNT-34) (method 2); the Compound 1 therapeutic window as compared to PBMCs ranged from 2.6 (KG-1a) to 36 (HNT-34)), or from 1.5 (KG-1a) to 21 (HNT-34) (Table 6).
# Cultures of 11 different AML cell lines were incubated 72 hours with Compound 1 at concentrations of 0.5 nM to 10 μM. Proliferation was assessed using the CellTitre-Glo® assay. Results for cultures incubated with Compound 1 were normalized to results for control cultures for each cell line. […]
# [2] = THLE-2 normal cells, 0.1 nM to 100 μM
smiles,measurement,setting,value
"O=C1CCC(N2Cc3cc(CNC(=O)C(F)(F)c4ccc(Cl)cc4)ccc3C2=O)C(=O)N1 (centres unmarked) [Compound 1, 2-(4-chlorophenyl)-N-((2-(2,6-dioxopiperidin-3-yl)-1-oxoisoindolin-5-yl)methyl)-2,2-difluoroacetamide]",IC50,[1],0.01 µM
same,difference in increase of membrane depolarization,HNT-34 cells and PBMCs,~7 fold
same,IC50,"THLE-2; Homo sapiens, THLE-2, 72 h, THLE-2 non-tumorigenic human hepatocyte-derived cell line, 72 hours, read-out: antiproliferative IC50",10 µM
same,AUC Method 1,THLE-2; [2],393.0 arbitrary units
same,AUC Method 2,THLE-2; [2],549.1 arbitrary units
